{"source": "patent US20090092664A1", "about": "“POLYMER-METAL CHELATOR CONJUGATES AND USES THEREOF” (UNIVERSITY OF KENTUCKY RESEARCH FOUNDATION, priority 2007, published 2009)", "key": {"[1]": {"test_system": "HL-60/VCR cells", "experiment": "MTT cell viability assay, HL-60/VCR leukemia cells", "assay_type": "cell-based, human", "protocol": "(§1) FIGS. 1A-B: […] Cell viability was determined with the MTT assay. […] Data are represented as the mean±standard error (SE). […] San Diego, Calif.)."}, "[2]": {"test_system": "HL-60/ADR cells", "experiment": "MTT cell viability assay, HL-60/ADR leukemia cells", "assay_type": "cell-based, human", "protocol": "as §1"}, "[3]": {"test_system": "BT474 cells", "experiment": "MTT cell viability assay, BT474 breast cancer cells", "assay_type": "cell-based, human", "protocol": "FIGS. 2A-B: […] Cell viability was determined with MTT assay. […] Inhibitory concentration (IC50) was reported as mean±S.E. […] Data are represented as the mean±standard error (SE). […] San Diego, Calif.)."}, "[4]": {"test_system": "MCF-7 cells", "experiment": "Intracellular ROS (H2DCFDA), MCF-7 cells", "assay_type": "cell-based, human", "conditions": "for intracellular ROS generation (in words): D-pen 200 μM, cupric sulfate 10 μM, catalase 500 U/mL with D-pen plus cupric sulfate", "protocol": "(§2) FIGS. 4A-B: D-pen in the presence of cupric sulfate generates intracellular ROS in breast cancer and leukemia cells. […] Cells were incubated without (positive control) or with H2O2, H2O2 plus catalase, cupric sulfate, D-pen, D-pen plus cupric sulfate, D-pen plus cupric sulfate plus catalase in media. Unloaded cells were used as negative control. The cell associated fluorescence was measured at 30, 60, 90 min at excitation and emission of 485±20 nm and 530±25 nm, respectively. Data are reported as the DCF fluorescence (fold increase versus control).\n(§3) 2′-7′-dichlorodihydrofluorescein diacetate (H2DCFDA) was used as an indicator of intracellular ROS generation. H2DCFDA is a cell permeable probe, it enters the cell and is deacetylated to a non-fluorescent product, 2′-7′-dichlorodihydrofluorescein (H2DCF) by cellular esterases and is oxidized by ROS to a fluorescent product, 2′-7′-dichlorofluorescein (DCF). MCF-7 and HL-60 cells were loaded with H2DCFDA and were seeded in a 96 well plate at a concentration of 3×10^4 cells/well. Briefly, cells were incubated with PBS buffer containing 5 μM H2DCFDA (dissolved in DMSO) for 30 min at 37° C. H2DCFDA was then removed and cells were washed twice with fresh PBS to remove excess H2DCFDA. Cells were then incubated with either drug in media or media alone (positive control). Non-H2DCFDA loaded cells were used as negative control. The fluorescence of control and sample wells was recorded at excitation 485±20 nm, emission 530±25 nm with Biotek FL600 (Biotek Instruments, Winooski, Vt.) at 30, 60, and 90 min. Then data is reported as DCF fluorescence (fold increase vs. control) corresponding to the increase of fluorescence associated with the sample cells compared to that of untreated cells."}, "[5]": {"test_system": "MCF-7 cells", "experimental": "(§4) Cell viability was determined with MTT assay. Absorbance was measured at 595 nm and adjusted to the absorbance of untreated cells. Data represent mean±SE; n=12 (two independent experiments performed in n=6). Inhibitory concentration (IC50) was reported as mean±S.E.\n(§5) Cell viability was measured using the 3-(4,5-dimethyl-2-yl)-2,5-diphenylteraolium bromide (MTT) assay. The adherent breast cancer cells (MCF-7 and BT474) were seeded at an initial concentration of 3×10^4 cells/well 24 h prior to the commencement of the experiments to allow them to attach, while the suspension leukemia cells, HL-60, HL-60-/VCR and HL-60/ADR were seeded at 3×10^4 cells/well on the same day of the experiment in a 96 well plate. […] The MTT assay was performed at 48 h and absorbance was measured with the microplate reader (Biotek ELx 800, Biotek Instruments, Winooski, Vt.) at a wavelength of 595 nm. Data is reported as cell viability (% control) and corresponds to the percent viable cells compared to untreated cells.\n(§6) Data are represented as the mean±standard error (SE). Each experimental group consisted of n=6 and experiments were repeated two times. […] The IC50 was calculated with GraphPad Prism® non-linear regression program."}, "[6]": {"test_system": "HL-60 cells", "experiment": "cells", "conditions": "Homo sapiens, HL-60, 48 h", "experimental": "Cell viability was determined with the MTT assay. Absorbance was measured at 595 nm and adjusted to the absorbance of untreated cells. Data represent mean±SE; n=12 (two independent experiments performed in n=6). Inhibitory concentrations (IC50) were reported as the mean±S.E in the figure legend.\nas §5, §6"}, "[7]": {"test_system": "MCF-7 cells", "experiment": "cells", "conditions": "Homo sapiens, MCF7, 48 h", "experimental": "as §4, §5, §6"}, "[8]": {"conditions": "cited from earlier work"}, "[9]": {"test_system": "HL-60 cells", "experiment": "Intracellular ROS (H2DCFDA), HL-60 cells", "assay_type": "cell-based, human", "conditions": "D-pen 200 μM, cupric sulfate 10 μM, catalase 500 U/mL with D-pen plus cupric sulfate", "protocol": "as §2, §3"}, "[10]": {"test_system": "HL-60 cells", "conditions": "cupric sulfate alone 0.1-50 μM, data not shown"}, "[11]": {"test_system": "HL-60 cells", "experiment": "In-vitro cytotoxicity of gelatin-D-pen conjugate (MTT)", "conditions": "cupric sulfate up to 100 μM, p>0.05 versus control", "experimental": "Cells (2×10^4) were incubated with gelatin alone (1 mg/mL), D-pen alone (100 μM), gelatin (1 mg/mL) plus D-pen (100 μM), and gelatin-D-pen conjugate (1 mg/mL) After every 2 day interval media was replaced with fresh media. MTT assay was performed on day 2, 4, 6, 8 and 10. Data represents mean±SD (n=6). **p<0.01 and ***p<0.001 compared to gelatin plus D-pen.\nIn-vitro cytotoxicity of gelatin-D-pen conjugate. The HL-60 cells were seeded at a density of 2×10^4 cells/mL in a 96 well plate. […] The above experiments were repeated with the copper pre-treated cells. Cell viability was determined at 24 and 72 h with MTT assay."}, "[12]": {"test_system": "HL-60 cells", "assay_type": "cell-based, human", "protocol": "FIG. 19: Cellular uptake of D-pen. D-pen (100 μM) was added to HL-60 (1×10^6) cells in PBS (pH 7.4) in a 24-well plate at 37° C. in 5% CO2 incubator. Cells were separated by centrifugation and the supernatant was analyzed by HPLC assay for D-pen concentration. Data represents mean±SD (n=4).\nQuantitative cell uptake of free D-pen. The quantitative cell uptake of free D-pen was investigated in HL-60 cells. Briefly, D-pen (100 μM) was incubated with HL-60 (1×10^6) cells in PBS, pH 7.4 at 37° C. in a 5% CO2 incubator. Cells were incubated for 1-4 h. At pre-determined time the cells were separated by centrifugation and the supernatant was analyzed for the remaining concentration of D-pen as present as either free D-pen or D-pen disulfide using the HPLC assay previously described (Gupte and Mumper, 2007)."}, "[13]": {"test_system": "HL-60 cells", "experiment": "Cytotoxicity of PGA-D-pen conjugate (MTT), HL-60", "assay_type": "cell-based, human", "conditions": "HL-60, 48 h", "experimental": "(§7) Cell Culture and Cytotoxicity: The P388 cells and HL-60 cells were plated at 1×10^4 and 4×10^4 cells respectively in 200 μl of medium per well in round bottom 96-well microwell plates. The MDA-MB-468 cells were plated at 1×10^4 cells/well in 96-well flat bottom microwell plates and allowed to attach overnight. Equal volumes of PGA-D-pen conjugate, PGA, D-pen, PGA+D-pen or PBS were added and the plates were incubated for 48 h (37° C., 5% CO2). 20 μl of MTT reagent (5 mg/ml in PBS; Sigma) was added to each well and re-incubated for 3-4 h to allow formation of formazan crystals. The round bottom plates were centrifuged at 200 g for 5 min. Subsequently, the supernatant was aspirated and 200 μl of DMSO were added to each well and the plate was incubated at room temperature for 1 h to lyse the cells and solubilize formazan. The optical density of each well at 570 nm was measured on a Synergy™ 2 Multi-Detection Microplate Reader (Biotek, Winooski, Vt.). Percent viability in treated wells was calculated as the percentage of optical density in control wells."}, "[14]": {"test_system": "P388 cells", "experiment": "Cytotoxicity of PGA-D-pen conjugate (MTT), P388", "assay_type": "cell-based", "conditions": "P388, 48 h", "experimental": "as §7"}, "[15]": {"test_system": "MDA-MB-468 cells", "experiment": "Cytotoxicity of PGA-D-pen conjugate (MTT), MDA-MB-468", "assay_type": "cell-based", "conditions": "MDA-MB-468, 48 h", "experimental": "as §7"}, "[16]": {"test_system": "HL-60 cells", "experiment": "Intracellular ROS (carboxy-H2DCFDA), HL-60 cells", "assay_type": "cell-based, human", "conditions": "naive HL-60, carboxy-H2DCFDA 25 μM, 8 h after treatment"}, "[17]": {"conditions": "cited from earlier work", "remark": "listed apart in the source"}, "[18]": {"conditions": "cupric sulfate alone 0.1-50 μM, data not shown"}}}
{"molecule": "OO", "note": "[H2O2, hydrogen peroxide]", "values": [{"measurement": "fold difference between IC50 of D-pen plus cupric sulfate and IC50 of H2O2 alone", "setting": "[1]", "value": "~4", "unit": "fold"}, {"measurement": "IC50", "setting": "[1]; Homo sapiens, HL60/VCR, 48 h, MTT, D-pen with cupric sulfate 10 μM", "value": "31.5 ± 1.1", "unit": "µM"}, {"measurement": "IC50", "setting": "[2]; Homo sapiens, HL60/ADR, 48 h, MTT, D-pen (1-400 μM) with cupric sulfate 10 μM", "value": "162.5 ± 1.1", "unit": "µM"}, {"measurement": "fold difference between IC50 of D-pen plus cupric sulfate and IC50 of H2O2 alone", "setting": "[3]; BT474", "value": "~3", "unit": "fold"}, {"measurement": "IC50", "setting": "[3]; Homo sapiens, BT-474, BT474, 48 h, MTT", "value": "96.1 ± 1.1", "unit": "µM"}, {"measurement": "ROS generated compared to D-pen plus cupric sulfate", "setting": "[4]; H2O2 alone 100 μM", "value": 5, "unit": "fold"}, {"measurement": "fold difference between IC50 of D-pen plus cupric sulfate and IC50 of H2O2 alone", "setting": "[5]", "value": "approximately 2 fold"}, {"measurement": "IC50", "setting": "[6]", "value": "20 ± 1", "unit": "µM"}, {"measurement": "IC50", "setting": "[7]", "value": "116 ± 1.6", "unit": "µM"}]}
{"molecule": "CCCCCCOC(=O)[C@H](N)C(C)(C)S", "note": "[hexyl-D-pen-ester]", "values": [{"measurement": "Log P", "setting": "[8]", "value": 1.61}]}
{"molecule": "catalase", "values": [{"measurement": "intracellular ROS generation (in words)", "setting": "[9]", "value": "completely inhibited ROS generation"}, {"measurement": "intracellular ROS generation (in words)", "setting": "[4]", "value": "completely inhibited ROS generation"}]}
{"molecule": "O=S(=O)([O-])[O-].[Cu+2]", "note": "[cupric sulfate]", "values": [{"measurement": "loss in cell viability", "setting": "[1]; [18]", "value": "did not result in any appreciable loss in cell viability"}, {"measurement": "loss in cell viability", "setting": "[2]; [18]", "value": "did not result in any appreciable loss in cell viability"}, {"measurement": "intracellular ROS generation (in words)", "setting": "[9]", "value": "failed to produce any ROS"}, {"measurement": "intracellular ROS generation (in words)", "setting": "[4]", "value": "failed to produce any ROS"}, {"measurement": "loss in cell viability", "setting": "[10]", "value": "did not result in any appreciable loss in cell viability"}, {"measurement": "effect of copper pre-treatment on cell number or viability", "setting": "[11]", "value": "did not result in statistically significant decrease in cell number or viability"}]}
{"molecule": "CC(C)(S)[C@@H](N)C(=O)O", "note": "[D-pen, D-penicillamine]", "values": [{"measurement": "intracellular ROS generation (in words)", "setting": "[9]", "value": "failed to produce any ROS"}, {"measurement": "intracellular ROS generation (in words)", "setting": "[4]", "value": "failed to produce any ROS"}, {"measurement": "cell uptake of free D-pen (in words)", "setting": "[12]", "value": "not to enter leukemia cells"}, {"measurement": "reduction in cell viability (in words)", "setting": "[13]", "value": "did not cause significant reduction in cell viability"}, {"measurement": "reduction in cell viability (in words)", "setting": "[14]", "value": "did not cause significant reduction in cell viability"}, {"measurement": "reduction in cell viability (in words)", "setting": "[15]", "value": "did not cause significant reduction in cell viability"}, {"measurement": "intracellular ROS levels (in words)", "setting": "[16]", "value": "no increase in intracellular ROS"}, {"measurement": "Log P", "setting": "[8]", "value": "−0.39"}, {"measurement": "half-life, biphasic elimination from the blood, first value", "setting": "[17]", "value": "6 to 7", "unit": "min"}, {"measurement": "half-life, biphasic elimination from the blood, second value", "setting": "[17]", "value": "52 to 55", "unit": "min"}]}
